Assay results from patent publication US20240383898A1, “PYRIDO RING COMPOUND, PREPARATION METHOD THEREFOR, INTERMEDIATE, COMPOSITION, AND APPLICATION” (YIYOU BIOTECH (SHANGHAI) CO., LTD, priority 2021, published 2024).
pIC50: −log10 of the molar value.

Tests used:
JAK1 = biological target: T1, JAK1 (Homo sapiens, UniProt P23458); experiment: In vitro activity test of JAK1 kinase (Caliper EZ Reader conversion assay); format: biochemical; settings: enzyme activity, 10 concentrations from 1000 nM, 3-fold dilution
T1 construct: purchased Carna 08-114
T1 sequence (P23458 whole entry, species assumed): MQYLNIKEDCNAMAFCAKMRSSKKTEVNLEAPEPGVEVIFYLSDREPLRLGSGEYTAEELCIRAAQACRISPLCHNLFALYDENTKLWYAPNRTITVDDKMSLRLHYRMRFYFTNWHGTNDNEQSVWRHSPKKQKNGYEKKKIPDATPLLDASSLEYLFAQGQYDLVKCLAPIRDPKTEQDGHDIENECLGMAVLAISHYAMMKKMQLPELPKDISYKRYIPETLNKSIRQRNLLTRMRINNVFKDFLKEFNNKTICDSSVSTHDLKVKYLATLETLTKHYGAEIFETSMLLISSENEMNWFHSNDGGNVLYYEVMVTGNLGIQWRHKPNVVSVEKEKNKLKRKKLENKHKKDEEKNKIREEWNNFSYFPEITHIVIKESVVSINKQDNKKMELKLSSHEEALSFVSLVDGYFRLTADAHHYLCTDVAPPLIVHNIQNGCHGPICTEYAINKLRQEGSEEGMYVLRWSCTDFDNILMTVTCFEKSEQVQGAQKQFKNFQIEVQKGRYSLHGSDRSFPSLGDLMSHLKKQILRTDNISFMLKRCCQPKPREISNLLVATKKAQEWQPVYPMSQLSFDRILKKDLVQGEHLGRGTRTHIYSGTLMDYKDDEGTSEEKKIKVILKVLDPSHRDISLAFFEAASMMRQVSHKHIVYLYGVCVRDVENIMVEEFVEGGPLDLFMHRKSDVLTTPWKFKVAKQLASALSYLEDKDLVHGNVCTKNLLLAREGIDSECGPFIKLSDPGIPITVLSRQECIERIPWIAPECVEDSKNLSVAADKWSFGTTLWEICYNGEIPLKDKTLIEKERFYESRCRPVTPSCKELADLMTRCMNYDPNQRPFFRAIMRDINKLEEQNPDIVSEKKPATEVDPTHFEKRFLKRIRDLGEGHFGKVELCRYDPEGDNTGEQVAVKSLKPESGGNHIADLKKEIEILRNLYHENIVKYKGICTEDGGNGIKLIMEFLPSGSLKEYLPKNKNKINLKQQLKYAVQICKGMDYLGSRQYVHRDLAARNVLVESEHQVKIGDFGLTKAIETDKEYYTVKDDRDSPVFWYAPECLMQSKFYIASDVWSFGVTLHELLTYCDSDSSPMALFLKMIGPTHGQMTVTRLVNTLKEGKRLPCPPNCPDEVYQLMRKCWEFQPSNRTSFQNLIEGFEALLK
In short: (§1)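 JAK1 or JAK2 pre-incubated with compound (top 1000 nM, 3-fold, 10 points, duplicate) for 10 min at room temperature, then ATP plus substrate added. Substrate conversion read by mobility-shift on Caliper EZ Reader after stop solution. Inhibition normalized to no-enzyme and DMSO controls; IC50 from variable-slope four-parameter fit.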

JAK2 = biological target: T2, JAK2 (Homo sapiens, UniProt O60674); experiment: In vitro activity test of JAK2 kinase (Caliper EZ Reader conversion assay); format: biochemical; settings: enzyme activity, 10 concentrations from 1000 nM, 3-fold dilution
T2 construct: purchased Carna 08-045
T2 sequence (O60674 whole entry, species assumed): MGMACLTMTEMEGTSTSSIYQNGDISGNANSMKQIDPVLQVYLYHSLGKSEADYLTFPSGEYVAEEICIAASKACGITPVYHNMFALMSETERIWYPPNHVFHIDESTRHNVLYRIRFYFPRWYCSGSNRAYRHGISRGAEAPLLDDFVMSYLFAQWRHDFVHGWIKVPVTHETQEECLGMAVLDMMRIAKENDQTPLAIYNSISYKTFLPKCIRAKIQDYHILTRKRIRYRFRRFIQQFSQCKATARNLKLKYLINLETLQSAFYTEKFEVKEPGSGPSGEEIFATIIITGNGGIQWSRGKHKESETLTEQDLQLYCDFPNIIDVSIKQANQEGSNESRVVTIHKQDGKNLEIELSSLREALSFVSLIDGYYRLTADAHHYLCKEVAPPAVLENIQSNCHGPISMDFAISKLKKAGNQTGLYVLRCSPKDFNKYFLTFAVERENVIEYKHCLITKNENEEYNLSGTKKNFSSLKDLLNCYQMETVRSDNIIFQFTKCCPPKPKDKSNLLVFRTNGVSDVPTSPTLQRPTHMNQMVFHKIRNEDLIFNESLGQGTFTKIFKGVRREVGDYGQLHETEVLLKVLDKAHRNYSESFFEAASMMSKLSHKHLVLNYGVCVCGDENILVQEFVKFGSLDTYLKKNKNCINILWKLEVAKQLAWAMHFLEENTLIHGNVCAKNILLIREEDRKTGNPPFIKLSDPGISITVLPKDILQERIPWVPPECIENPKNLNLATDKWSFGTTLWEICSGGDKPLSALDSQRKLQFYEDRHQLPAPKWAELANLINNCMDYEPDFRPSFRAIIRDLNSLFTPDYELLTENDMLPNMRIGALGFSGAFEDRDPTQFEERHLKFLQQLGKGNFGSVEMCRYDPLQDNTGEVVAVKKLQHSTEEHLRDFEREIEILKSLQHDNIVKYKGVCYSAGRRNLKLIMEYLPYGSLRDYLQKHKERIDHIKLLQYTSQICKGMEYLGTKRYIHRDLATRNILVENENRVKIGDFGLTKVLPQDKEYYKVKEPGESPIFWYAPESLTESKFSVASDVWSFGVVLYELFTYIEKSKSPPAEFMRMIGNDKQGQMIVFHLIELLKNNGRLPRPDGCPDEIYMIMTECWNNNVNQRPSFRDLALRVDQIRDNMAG
In short: as §1

For `CC(C(=O)NCC(F)(F)F)N1CC[C@H](n2c([C@@H](C)O)nc3cnc4[nH]ccc4c32)C1` (stereo partly drawn) [LXS75, 2-((S)-3-(2-((R)-1-Hydroxyethyl)imidazo[4,5-d]pyrrolo[2,3-b]pyridin-1(6H)-yl)pyrrolidin-1-yl)-N-(2,2,2-trifluoroethyl)propanamide], the pIC50 (JAK1) was over 8.00 and the pIC50 (JAK2) was 6.00 to 7.00.

Molecule `CCC(C(=O)NCC(F)(F)F)N1CC[C@H](n2c([C@@H](C)O)nc3cnc4[nH]ccc4c32)C1` (stereo partly drawn) [LXS76, 2-((S)-3-(2-((R)-1-Hydroxyethyl)imidazo[4,5-d]pyrrolo[2,3-b]pyridin-1(6H)-yl)pyrrolidin-1-yl)-N-(2,2,2-trifluoroethyl)butanamide] has a pIC50 (JAK1) of over 8.00 and a pIC50 (JAK2) of 6.00 to 7.00.

`CCS(=O)(=O)N1CC(CC#N)(n2cc(-n3c(-c4ccc(C)o4)nc4cnc5[nH]ccc5c43)cn2)C1` [LXS77, 2-(1-(ethylsulfonyl)-3-(4-(2-(5-methylfuran-2-yl)imidazolyl[4,5-d]pyrrolo[2,3-b]pyridin-1(6H)-yl)-1H-pyrazol-1-yl)azetidin-3-yl) acetonitrile] was tested, and the pIC50 (JAK1) was 6.00 to 7.00 and the pIC50 (JAK2) was over 8.00.

`N#CCn1cc(-n2c(C(F)(F)F)nc3cnc4[nH]ccc4c32)cn1` [LXS78, 2-(4-(2-(Trifluoromethyl)imidazo[4,5-d]pyrrolo[2,3-b]pyridin-1(6H)-yl)-1H-pyrazol-1-yl)acetonitrile] was tested, and the pIC50 (JAK1) was 7.00 to 8.00 and the pIC50 (JAK2) was 7.00 to 8.00.

`N#CCCn1cc(-n2cnc3cnc4[nH]ccc4c32)cn1` [LXS79, 3-(4-(Imidazo[4,5-d]pyrrolo[2,3-b]pyridin-1(6H)-yl)-1H-pyrazol-1-yl)propanenitrile] showed a pIC50 (JAK1) of 6.00 to 7.00 and a pIC50 (JAK2) of over 8.00.

`N#CCCn1cc(-n2c(-c3ccccc3Cl)nc3cnc4[nH]ccc4c32)cn1` [LXS80, 3-(4-(2-(2-Chlorophenyl)imidazo[4,5-d]pyrrolo[2,3-b]pyridin-1(6H)-yl)-1H-pyrazol-1-yl)propanenitrile] gave a pIC50 (JAK1) of 7.00 to 8.00 and a pIC50 (JAK2) of 7.00 to 8.00.

Work on `N#CCn1cc(-n2c(-c3ccc(CO)o3)nc3cnc4[nH]ccc4c32)cn1` [LXS81, 2-(4-(2-(5-(Hydroxymethyl)furan-2-yl)imidazo[4,5-d]pyrrolo[2,3-b]pyridin-1(6H)-yl)-1H-pyrazol-1-yl)acetonitrile] yielded a pIC50 (JAK1) of 7.00 to 8.00 and a pIC50 (JAK2) of 7.00 to 8.00.

With `N#CCCn1cc(-n2c(-c3cccc(O)c3)nc3cnc4[nH]ccc4c32)cn1` [LXS82, 3-(4-(2-(3-Hydroxyphenyl)imidazo[4,5-d]pyrrolo[2,3-b]pyridin-1(6H)-yl)-1H-pyrazol-1-yl)propanenitrile] the pIC50 (JAK1) was 7.00 to 8.00 and the pIC50 (JAK2) was 7.00 to 8.00.

`N#CCCn1cc(-n2c(-c3ccccc3F)nc3cnc4[nH]ccc4c32)cn1` [LXS83, 3-(4-(2-(2-Fluorophenyl)imidazo[4,5-d]pyrrolo[2,3-b]pyridin-1(6H)-yl)-1H-pyrazol-1-yl)propanenitrile] showed a pIC50 (JAK1) of 7.00 to 8.00 and a pIC50 (JAK2) of 7.00 to 8.00.

Work on `C[C@@H](O)c1nc2cnc3[nH]ncc3c2n1[C@H]1CCN(CCCC#N)C1` [LXS85, 4-((S)-3-(2-((R)-1-Hydroxyethyl)imidazo[4,5-d]pyrazolo[3,4-b]pyridin-1(6H)-yl)pyrrolidin-1-yl)butanenitrile] yielded a pIC50 (JAK1) of over 8.00 and a pIC50 (JAK2) of 6.00 to 7.00.

Molecule `C[C@@H](O)c1nc2cnc3[nH]ccc3c2n1[C@@H]1CN(CCCC(F)(F)F)CC1F` (stereo partly drawn) [LXS86, (1R)-1-(1-((3R)-4-fluoro-1-(4,4,4-trifluorobutyl)pyrrolidin-3-yl)-1,6-dihydroimidazo[4,5-d]pyrrolo[2,3-b]pyridin-2-yl)ethan-1-ol] has a pIC50 (JAK1) of over 8.00 and a pIC50 (JAK2) of 6.00 to 7.00.

`C[C@@H](O)c1nc2cnc3[nH]ccc3c2n1[C@@H]1CN(CCCC(F)(F)F)C[C@H]1F` [LXS87, (R)-1-(1-((3R,4R)-4-fluoro-1-(4,4,4-trifluorobutyl)pyrrolidin-3-yl)-1,6-dihydroimidazo[4,5-d]pyrrolo[2,3-b]pyridin-2-yl)ethan-1-ol] showed a pIC50 (JAK1) of over 8.00 and a pIC50 (JAK2) of 6.00 to 7.00.

With `C[C@@H](O)c1nc2cnc3[nH]ccc3c2n1[C@H]1C[C@@H](CO)N(CCCC(F)(F)F)C1` [LXS89, (R)-1-(1-((3S,5S)-5-(hydroxymethyl)-1-(4,4,4-trifluorobutyl)pyrrolidin-3-yl)-1,6-dihydroimidazo[4,5-d]pyrrolo[2,3-b]pyridin-2-yl)ethan-1-ol] the pIC50 (JAK1) was 7.00 to 8.00 and the pIC50 (JAK2) was 6.00 to 7.00.

In the case of `C[C@@H](O)c1nc2cnc3[nH]ncc3c2n1[C@H]1CCN(CCCC(F)(F)F)C1` [LXS90, (R)-1-(1-((S)-1-(4,4,4-trifluorobutyl)pyrrolidin-3-yl)-1,6-dihydroimidazo[4,5-d]pyrazolo[3,4-b]pyridin-2-yl)ethan-1-ol], the pIC50 (JAK1) was 7.00 to 8.00 and the pIC50 (JAK2) was 6.00 to 7.00.

For `C[C@@H](O)c1nc2cnc3[nH]ccc3c2n1[C@H]1C[C@H](CO)N(CCCC(F)(F)F)C1` [LXS91, (R)-1-(1-((3S,5R)-5-(hydroxymethyl)-1-(4,4,4-trifluorobutyl)pyrrolidin-3-yl)-1,6-dihydroimidazo[4,5-d]pyrrolo[2,3-b]pyridin-2-yl)ethan-1-ol], the pIC50 (JAK1) was over 8.00 and the pIC50 (JAK2) was 6.00 to 7.00.

Molecule `C[C@@H](O)c1nc2cnc3[nH]ncc3c2n1[C@@H]1CN(CCCC#N)CC1F` (stereo partly drawn) [LXS93, 4-((4R)-3-Fluoro-4-(2-((R)-1-hydroxyethyl)imidazo[4,5-d]pyrazolo[3,4-b]pyridin-1(6H)-yl)pyrrolidin-1-yl)butanenitrile] has a pIC50 (JAK1) of over 8.00 and a pIC50 (JAK2) of 6.00 to 7.00.

`C[C@@H](O)c1nc2cnc3[nH]ncc3c2n1[C@H]1C[C@@H](CO)N(CCCC#N)C1` [LXS94, 4-((2S,4S)-4-(2-((R)-1-Hydroxyethyl)imidazo[4,5-d]pyrazolo[3,4-b]pyridin-1(6H)-yl)-2-(hydroxymethyl)pyrrolidin-1-yl)butanenitrile] showed a pIC50 (JAK1) of 7.00 to 8.00 and a pIC50 (JAK2) of 6.00 to 7.00.

In the case of `C[C@@H](O)c1nc2cnc3[nH]ccc3c2n1[C@H]1CCN(CCC(F)(F)F)C1` [LXS96, (R)-1-(1-((S)-1-(3,3,3-trifluoropropyl)pyrrolidin-3-yl)imidazo[4,5-d]pyrrolo[2,3-b]pyridin-2-yl)ethanol], the pIC50 (JAK1) was over 8.00 and the pIC50 (JAK2) was 6.00 to 7.00.

Molecule `C[C@@H](O)c1nc2cnc3[nH]ccc3c2n1[C@H]1CCN(CCC(F)(F)C(F)(F)F)C1` [LXS97, (R)-1-(1-((S)-1-(3,3,4,4,4-Pentafluorobutyl)pyrrolidin-3-yl)imidazo[4,5-d]pyrrolo[2,3-b]pyridin-2-yl)ethanol] has a pIC50 (JAK1) of over 8.00 and a pIC50 (JAK2) of 6.00 to 7.00.

Work on `OCc1ccc(-c2nc3cnc4[nH]ccc4c3n2[C@H]2CCN(CCCC(F)(F)F)C2)o1` [LXS98, (S)-(5-(1-(1-(4,4,4-trifluorobutyl)pyrrolidin-3-yl)-1,6-dihydroimidazo[4,5-d]pyrrolo[2,3-b]pyridin-2-yl)furan-2-yl)methanol] yielded a pIC50 (JAK1) of 7.00 to 8.00 and a pIC50 (JAK2) of 7.00 to 8.00.

For `Oc1cccc(-c2nc3cnc4[nH]ccc4c3n2[C@H]2CCN(CCCC(F)(F)F)C2)c1` [LXS99, (S)-3-(1-(1-(4,4,4-trifluorobutyl)pyrrolidin-3-yl)-1,6-dihydroimidazo[4,5-d]pyrrolo[2,3-b]pyridin-2-yl)phenol], the pIC50 (JAK1) was 7.00 to 8.00 and the pIC50 (JAK2) was 7.00 to 8.00.

In the case of `C[C@@H](O)c1nc2cnc3[nH]ccc3c2n1[C@H]1CCN(CC(F)(F)C(F)(F)C(F)(F)F)C1` [LXS100, (R)-1-(1-((S)-1-(2,2,3,3,4,4,4-Heptafluorobutyl)pyrrolidin-3-yl)imidazo[4,5-d]pyrrolo[2,3-b]pyridin-2-yl)ethanol], the pIC50 (JAK1) was over 8.00 and the pIC50 (JAK2) was 6.00 to 7.00.
